# Laboratory results: publication PMC7018803, “A randomized, placebo-controlled, phase 1 study to evaluate the effects of TAK-063 on ketamine-induced changes in fMRI BOLD signal in healthy subjects” (Psychopharmacology, 2019)
# System: healthy male subjects
# Assay: Resting state fMRI BOLD signal before ketamine infusion
# Format: in vivo, human
# Settings: 3-30 mg
# Method: Subjects checked in on day − 1 of each treatment period during which vital signs, electrocardiogram (ECG), and laboratory safety tests were repeated. On day 1 of each treatment period, subjects received a 3-, 10-, or 30-mg TAK-063 dose or placebo tablets. Participants then relaxed, slept, or watched movies while remaining in the research environment. Ketamine (0.12 mg/kg intravenous bolus over 60 s followed by a continuous infusion of 0.31 mg/kg/h over approximately 150 min) was administered 4 h after TAK-063 or placebo (Fig. 1). This ketamine dose was based on a previous study that achieved steady-state concentrations of 75 ng/mL and provided a robust BOLD signal with minimal psychotomimetic symptoms (De Simoni et al. [2013]).
# The scanning protocol for the current study was very comprehensive and included multiple MR approaches. This publication reports the BOLD fMRI data for the working memory task, but also resting state fMRI. The magnetic scanning portion of the neuroimaging test battery was initiated 20 min before ketamine dosing. Imaging was performed using a 3 Tesla Siemens Trio scanner. The MR scanning protocol was initiated 20 min before ketamine dosing; prior to scanning, a structural magnetization prepared rapid gradient echo (MPRAGE) scan was collected. […]
smiles,measurement,value
COc1cn(-c2ccc(-n3cccn3)cc2F)nc(-c2ccnn2-c2ccccc2)c1=O [TAK-063],effects on fMRI BOLD signal during the resting state before ketamine infusion,region-specific effects
